Experimental data reported in PubChem BioAssay AID248 (DTP/NCI, 2004).
Where “and” joins values, the source holds several entries; their conditions need not be identical. Identical values can stand only once. Toxic doses and inconclusive results are not listed. Rule as the data show it: active = T/C of 150% or more; inactive = T/C below 125%.

Tested on: L1210 leukemia ip in BDF1 mice, survival T/C
Experiment: NCI In Vivo Anticancer Drug Screen. Data for tumor model L1210 Leukemia (intraperitoneal) in B6D2F1 (BDF1) mice
Conditions: endpoint: mean survival time, higher = longer survival
In short: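 Antitumor effect is assessed in tumor-bearing animals. Survival in the compound arm is compared with a vehicle-dosed control arm and expressed as their quotient.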

[1] = dose: 100.0 mg/kg/injection, schedule: Q04DX003 (ip), vehicle: saline with Tween-80
[2] = dose: 200.0 mg/kg/injection, schedule: Q04DX003 (ip), vehicle: saline with Tween-80
[3] = dose: 400.0 mg/kg/injection, schedule: Q04DX003 (ip), vehicle: saline with Tween-80
[4] = dose: 100.0 mg/kg/injection, schedule: Q01DX001 (ip), vehicle: saline
[5] = dose: 200.0 mg/kg/injection, schedule: Q01DX001 (ip), vehicle: saline
[6] = dose: 400.0 mg/kg/injection, schedule: Q01DX001 (ip), vehicle: saline
[7] = dose: 100.0 mg/kg/injection, schedule: Q04DX002 (ip), vehicle: Klucel (hydroxypropylcellulose) (HPC)
[8] = dose: 100.0 mg/kg/injection, schedule: Q04DX003 (ip), vehicle: Klucel (hydroxypropylcellulose) (HPC)
[9] = dose: 200.0 mg/kg/injection, schedule: Q04DX002 (ip), vehicle: Klucel (hydroxypropylcellulose) (HPC)
[10] = dose: 200.0 mg/kg/injection, schedule: Q04DX003 (ip), vehicle: Klucel (hydroxypropylcellulose) (HPC)
[11] = dose: 400.0 mg/kg/injection, schedule: Q04DX002 (ip), vehicle: Klucel (hydroxypropylcellulose) (HPC)
[12] = dose: 400.0 mg/kg/injection, schedule: Q04DX003 (ip), vehicle: Klucel (hydroxypropylcellulose) (HPC)
[13] = dose: 100.0 mg/kg/injection, schedule: Q04DX002 (ip), vehicle: saline
[14] = dose: 100.0 mg/kg/injection, schedule: Q01DX009 (ip), vehicle: saline with Tween-80
[15] = dose: 200.0 mg/kg/injection, schedule: Q01DX009 (ip), vehicle: saline with Tween-80
[16] = dose: 400.0 mg/kg/injection, schedule: Q01DX009 (ip), vehicle: saline with Tween-80

Measured: T/C

COCCN(/N=N/c1nc[nH]c1C(N)=O)C(C)(C)C
inactive: dose: 50.0 mg/kg/injection, schedule: Q01DX001 (ip), vehicle: water 100 % of control | dose: 50.0 mg/kg/injection, schedule: Q04DX003 (ip), vehicle: water 101 % of control | dose: 100.0 mg/kg/injection, schedule: Q01DX001 (ip), vehicle: water 97 % of control | dose: 100.0 mg/kg/injection, schedule: Q04DX003 (ip), vehicle: water 101 % of control | dose: 200.0 mg/kg/injection, schedule: Q01DX001 (ip), vehicle: water 92 % of control | dose: 200.0 mg/kg/injection, schedule: Q04DX003 (ip), vehicle: water 102 % of control | dose: 400.0 mg/kg/injection, schedule: Q01DX001 (ip), vehicle: water 97 % of control | dose: 400.0 mg/kg/injection, schedule: Q04DX003 (ip), vehicle: water 96 % of control

CCOC(=O)C1CCc2ccccc2CC1
inactive: dose: 200.0 mg/kg/injection, schedule: Q04DX003 (ip), vehicle: acetone 100 % of control

COc1c2c(c(OC)c3c1C(=O)c1ccccc1C3=O)CC(C(C)=O)CC2 (stereo not given)
inactive: [1] 94 % of control | [2] 92 % of control | [3] 92 % of control

CC(C(=O)c1ccc(Br)cc1)C(O)(C(F)(F)F)C(F)(F)F (stereo not given)
inactive: dose: 100.0 mg/kg/injection, schedule: Q01DX007 (ip), vehicle: saline with Tween-80 102 % of control | dose: 200.0 mg/kg/injection, schedule: Q01DX007 (ip), vehicle: saline with Tween-80 109 % of control | dose: 400.0 mg/kg/injection, schedule: Q01DX007 (ip), vehicle: saline with Tween-80 101 % of control

COC1OC(CO)C(O)C(OC)C1NC(C)=O (stereo not given)
inactive: [4] 103 % of control | [5] 106 % of control | [6] 101 % of control

CCC(C)NCCOC(=O)C(c1ccccc1)c1ccccc1 (stereo not given)
inactive: dose: 75.0 mg/kg/injection, schedule: Q01DX001 (ip), vehicle: other 93 % of control

COc1ccc([N+](=O)[O-])cc1NC(=O)N1CCCCC1C (stereo not given)
inactive: dose: 100.0 mg/kg/injection, schedule: Q01DX001 (ip), vehicle: Klucel (hydroxypropylcellulose) (HPC) 101 % of control | dose: 100.0 mg/kg/injection, schedule: Q01DX009 (ip), vehicle: Klucel (hydroxypropylcellulose) (HPC) 98 % of control and 102 % of control | [7] 97 % of control and 103 % of control | [8] 106 % of control | dose: 200.0 mg/kg/injection, schedule: Q01DX001 (ip), vehicle: Klucel (hydroxypropylcellulose) (HPC) 102 % of control | dose: 200.0 mg/kg/injection, schedule: Q01DX009 (ip), vehicle: Klucel (hydroxypropylcellulose) (HPC) 98 % of control and 106 % of control | [9] 94 % of control and 105 % of control | [10] 99 % of control | dose: 400.0 mg/kg/injection, schedule: Q01DX001 (ip), vehicle: Klucel (hydroxypropylcellulose) (HPC) 96 % of control | dose: 400.0 mg/kg/injection, schedule: Q01DX009 (ip), vehicle: Klucel (hydroxypropylcellulose) (HPC) 95 % of control and 96 % of control | [11] 94 % of control and 110 % of control | [12] 91 % of control

CCCCCC[Si](Br)(CCCCCC)CCCCCC
inactive: dose: 25.0 mg/kg/injection, schedule: Q01DX009 (ip), vehicle: saline 102 % of control | dose: 50.0 mg/kg/injection, schedule: Q01DX009 (ip), vehicle: saline 102 % of control | [4] 98 % of control | dose: 100.0 mg/kg/injection, schedule: Q01DX009 (ip), vehicle: saline 98 % of control | [5] 93 % of control | [6] 96 % of control

CCCCCCCCCCC(CCCCCCCCCC)CC(C)(C)C
inactive: dose: 50.0 mg/kg/injection, schedule: Q01DX001 (ip), vehicle: saline with Tween-80 103 % of control | dose: 100.0 mg/kg/injection, schedule: Q01DX001 (ip), vehicle: saline with Tween-80 96 % of control | dose: 200.0 mg/kg/injection, schedule: Q01DX001 (ip), vehicle: saline with Tween-80 103 % of control

NCCCN=C(N)C(N)=NCCCN
inactive: dose: 100.0 mg/kg/injection, schedule: Q04DX003 (ip), vehicle: saline 98 % of control | dose: 200.0 mg/kg/injection, schedule: Q04DX003 (ip), vehicle: saline 95 % of control | dose: 400.0 mg/kg/injection, schedule: Q04DX003 (ip), vehicle: saline 104 % of control

COC1OC(COC(=O)c2ccccc2)C(OC(=O)c2ccccc2)C1OC(=O)c1ccccc1 (stereo not given)
inactive: [1] 101 % of control | [2] 92 % of control | [3] 90 % of control

COc1ccc(-n2c(=O)c(N=Nc3ccccc3C)c(O)n(-c3ccccc3C)c2=S)cc1
inactive: dose: 37.5 mg/kg/injection, schedule: Q01DX001 (ip), vehicle: Klucel (hydroxypropylcellulose) (HPC) 100 % of control | dose: 75.0 mg/kg/injection, schedule: Q01DX001 (ip), vehicle: Klucel (hydroxypropylcellulose) (HPC) 97 % of control | dose: 150.0 mg/kg/injection, schedule: Q01DX001 (ip), vehicle: Klucel (hydroxypropylcellulose) (HPC) 100 % of control

COC(=O)CCN1CCN(c2ccccc2)CC1
inactive: [4] 98 % of control | [5] 98 % of control | [6] 97 % of control

CS(=O)(=O)c1nc2ccc([N+](=O)[O-])cc2s1
inactive: dose: 25.0 mg/kg/injection, schedule: Q04DX002 (ip), vehicle: saline 107 % of control | dose: 50.0 mg/kg/injection, schedule: Q04DX002 (ip), vehicle: saline 104 % of control | [13] 100 % of control

CCCCn1cc(S(=O)(=O)Nc2ccccc2)c(=O)[nH]c1=O
inactive: dose: 37.5 mg/kg/injection, schedule: Q01DX001 (ip), vehicle: saline with Tween-80 104 % of control | dose: 75.0 mg/kg/injection, schedule: Q01DX001 (ip), vehicle: saline with Tween-80 98 % of control | dose: 150.0 mg/kg/injection, schedule: Q01DX001 (ip), vehicle: saline with Tween-80 98 % of control

CC(C)c1ccccc1OS(=O)(=O)c1ccc([N+](=O)[O-])cc1
inactive: [14] 103 % of control | [8] 103 % of control | [15] 92 % of control | [10] 105 % of control | [16] 90 % of control | [12] 92 % of control

C=CC1=C(C)C(=O)N/C1=C\c1[nH]c(Cc2[nH]c(/C=C3/NC(=O)C(C(C)SC(C)=O)=C3C)cc2CCC(=O)O)c(CCC(=O)O)c1C (stereo not given)
inactive: [7] 101 % of control | [9] 108 % of control | [11] 97 % of control

[N-]=[N+]=c1c(=O)c2ccccc2c1=O
inactive: [14] 103 % of control | [15] 97 % of control | [16] 96 % of control

C[S+](C)CCS(=O)(=O)[O-]
inactive: [13] 99 % of control | dose: 200.0 mg/kg/injection, schedule: Q04DX002 (ip), vehicle: saline 96 % of control | dose: 400.0 mg/kg/injection, schedule: Q04DX002 (ip), vehicle: saline 96 % of control

O=c1[nH]ncc2c1[nH]c1cccc(Cl)c12
inactive: dose: 200.0 mg/kg/injection, schedule: Q04DX003 (ip), vehicle: carboxymethylcellulose (CMC) 88 % of control | dose: 400.0 mg/kg/injection, schedule: Q04DX003 (ip), vehicle: carboxymethylcellulose (CMC) 92 % of control
